Measured values reported in ChEMBL document CHEMBL1949648, “Synthesis and neurite growth evaluation of new analogues of honokiol, a neolignan with potent neurotrophic activity” (2012).

Experiments:
N2a [1] = test: Induction of neurite outgrowth in mouse Neuro2a cells at 1 uM after 48 hrs by morphometric analysis relative to control; format: functional
N2a [2] = test: Induction of neurite outgrowth in mouse Neuro2a cells at 0.1 uM after 48 hrs by morphometric analysis relative to control; format: functional

Row | SMILES | Activity (N2a [1]) | Activity (N2a [2])
1 | C=CCc1ccc(O)c(-c2ccc(O)c(-c3ccc(C(=O)OCC)c(C)n3)c2)c1 | 5.78% | 
2 | C=CCc1ccc(O)c(-c2ccc(O)c(CC=C)c2)c1 [HONOKIOL] | 41.03% | 
3 | C=CCc1ccc(OC)c(-c2ccc(O)c(-c3ccn(C)n3)c2)c1 |  | 5.89%
4 | C=CCc1ccc(OC)c(-c2ccc(OC)c(C(=O)c3cn(Cc4ccccc4)nn3)c2)c1 | 6.87% | 
